Patent US10076505B2, “Inhalation formulations of Treprostinil” (priority 2003, dated 2018)

How the values were obtained:
[1] = test system: sheep; test: Intravenous and aerosolized UT-15 dose response during U44069 induced pulmonary hypertension (Example V); format: in vivo; conditions: U44069 infused intravenously at 1 ng per kg per min
Text: Sheep were used as the animal model of choice for these experiments for a number of reasons. First is the docile nature of sheep. They will stand quietly in metabolic cages without having to utilize tranquilizing drugs, which have the potential to complicate experimental results. Second, sheep are large enough to allow direct measurement of CO, PPA, PLA, PCV, and PSYS. Sheep are also large enough to allow direct aerosolization of substances into the lung via trachoestomy thereby preventing swallowing of drugs and thus eliminating a possible secondary route of administration of UT-15. Third, sheep can tolerate a great amount of instrumentation with little or no discomfort. Fourth, sheep have been utilized for several years as an animal model of pulmonary arterial hypertension and thus, there is a great amount of historical data with which to compare the results. […] The reasons for using U44069 are that it is a very potent pulmonary vasoconstrictor, its characteristics are very similar to endogenously formed thromboxane A2, and it can be titrated to induce the desired degree of pulmonary vasoconstriction. U44069 was mixed with sterile normal saline immediately prior to being used and was protected from light by wrapping the solution with aluminum foil. The concentration of U44069 was adjusted such that a minimal flow rate of 0.8 ml per min was being infused into the sheep. This was done because more concentrated U44069 would have to be infused at very low rates and often causes “pulses” of U44069 due to the infusion characteristics of roller pumps. The U44069 pulses cause vasoconstriction “spikes” and thus would create induce a non-steady-state. Six yearling sheep (3 males, 3 females; 21-37 kg) were fasted 18-24 hours and initially anesthetized with a short acting barbiturate (thiopental) to allow intubation of the sheep. Halothane gas anesthesia (1.5-2.5%) was then used for the surgical procedures. Via a left thoracotomy, a Transonic blood flow probe was placed around the main pulmonary artery, silastic catheters placed in the main pulmonary artery and left atrium. After approximately 7 days the sheep were reanesthetized and the left carotid artery cannulated, a Cordis Introducer Sheath inserted in the left jugular vein, and a tracheotomy made. The sheep were allowed to recover for another 3-5 days prior to experimentation. These sheep were used to allow measurement of pulmonary arterial pressure (PPA), left atrial pressure (PLA), central venous pressure (PCV), systemic arterial pressure (PSYS), heart rate (HR), and cardiac output (CO) after baseline measurements were made for a minimum of 30 minutes. Two separate experiments were conducted to determine the dose response effects of intravenously infused UT-15 and aerosolized UT-15 during U44069 induced pulmonary hypertension. After a 30 minute baseline was established, U44069 was infused intravenously at a rate of 1 ng per kg per min. For the intravenous administration of UT-15 and after allowing the sheep to achieve a steady-state for 30-60 minutes, a dose-response to intravenous UT-15 was similar to that set forth in Example IV. For the aerosolized administration of UT-15 and after allowing the sheep to achieve a steady-state for 30-60 minutes, a dose-response to intravenous UT-15 was similar to that set forth in Example IV. In each experimental protocol, UT-15 was administered to three sheep for 30 minutes and to the other three sheep for 60 minutes.

[2] = test system: sheep; test: Prolonged U44069 intravenous infusion, pulmonary vascular resistance and hemodynamics (Example II); format: in vivo
Text: Sheep were used as the animal model of choice for these experiments for a number of reasons. First is the docile nature of sheep. They will stand quietly in metabolic cages without having to utilize tranquilizing drugs, which have the potential to complicate experimental results. Second, sheep are large enough to allow direct measurement of CO, PPA, PLA, PCV, and PSYS. Sheep are also large enough to allow direct aerosolization of substances into the lung via trachoestomy thereby preventing swallowing of drugs and thus eliminating a possible secondary route of administration of UT-15. Third, sheep can tolerate a great amount of instrumentation with little or no discomfort. Fourth, sheep have been utilized for several years as an animal model of pulmonary arterial hypertension and thus, there is a great amount of historical data with which to compare the results. The agent chosen to induce pulmonary arterial hypertension was a PGH2 analog, U44069 (9,11-dideoxy,9α,11α-epoxymethanoprostaglandin F2α). The reasons for using U44069 are that it is a very potent pulmonary vasoconstrictor, its characteristics are very similar to endogenously formed thromboxane A2, and it can be titrated to induce the desired degree of pulmonary vasoconstriction. U44069 was mixed with sterile normal saline immediately prior to being used and was protected from light by wrapping the solution with aluminum foil. The concentration of U44069 was adjusted such that a minimal flow rate of 0.8 ml per min was being infused into the sheep. This was done because more concentrated U44069 would have to be infused at very low rates and often causes “pulses” of U44069 due to the infusion characteristics of roller pumps. The U44069 pulses cause vasoconstriction “spikes” and thus would create induce a non-steady-state.
Six yearling sheep (3 males, 3 females; 21-37 kg) were fasted 18-24 hours and initially anesthetized with a short acting barbiturate (thiopental) to allow intubation of the sheep. Halothane gas anesthesia (1.5-2.5%) was then used for the surgical procedures. Via a left thoracotomy, a Transonic blood flow probe was placed around the main pulmonary artery, silastic catheters placed in the main pulmonary artery and left atrium. After approximately 7 days the sheep were reanesthetized and the left carotid artery cannulated, a Cordis Introducer Sheath inserted in the left jugular vein, and a tracheotomy made. The sheep were allowed to recover for another 3-5 days prior to experimentation. These sheep were used to allow measurement of pulmonary arterial pressure (PPA), left atrial pressure (PLA), central venous pressure (PCV), systemic arterial pressure (PSYS), heart rate (HR), and cardiac output (CO) after baseline measurements were made for a minimum of 30 minutes.
In four sheep, the ability of U44069 to maintain a steady-state increase in PVR was determined. After a 30 minute baseline, U44069 was infused at a rate of 1 microgram per kg of body weight per minute for 180 minutes. […] In particular, FIG. 9 illustrates that intravenously infused U44069 causes PVR to reach a steady-state increase by 30 minutes and that the steady-state increase lasts for a minimum of 180 minutes. U44069 caused significant alterations in other variables (data not shown) over the 180 minute infusion period relative to their baseline values: PPA increased, HR decreased, CO decreased.

[3] = test system: rat; conditions: orally, 1 mg/kg, cited from earlier work
[4] = in vivo; cited from earlier work
[5] = U44069 iv 1 microgram per kg per minute for 180 minutes, four sheep
[6] = U44069 iv 1 microgram per kg per minute, 180 minute infusion

## CCCCC[C@H](O)/C=C/C1C2COC(C2)C1C/C=C\CCCC(=O)O (stereo partly drawn) [U44069, 9,11-dideoxy,9α,11α-epoxymethanoprostaglandin F2α]
[1]
  PPA relative to baseline: significantly increased
  PVR: dramatic increase
  cardiac output relative to baseline: decrease
  left atrial pressure: did not alter
[2]; [5]
  duration of steady-state increase in PVR: ≥ 180 min
  time for PVR to reach a steady-state increase: ≤ 30 min
[2]; [6]
  cardiac output (CO) relative to baseline: decreased
  heart rate (HR) relative to baseline: decreased
  pulmonary arterial pressure (PPA) relative to baseline: increased
[2]; U44069 iv infusion, any time point
  left atrial pressure (PLA) relative to baseline: did not significantly change
[2]; U44069 iv infusion, significant only at 30 and 60 minutes
  central venous pressure (PCV) relative to baseline: increased
[2]; U44069 iv infusion, statistically different only at 120, 150 and 180 minutes
  systemic arterial pressure (PSYS) relative to baseline: increased above baseline values

## CCCCC[C@H](O)CC[C@@H]1[C@H]2Cc3cccc(OCC(=O)OC)c3C[C@H]2C[C@H]1O [9-deoxy-2′,9α-methano-3-oxa-4,5,6-trinor-3,7-(1′,3′-interphenylene)-PGF1, methyl ester]
[3]; after 52 min
  blood pressure still lower after 52 min: 14 mm
[3]
  lowered blood pressure: 44 mmHg

## CCCCC[C@H](O)CC[C@@H]1[C@H]2Cc3cccc(OCC(=O)[O-])c3C[C@H]2C[C@H]1O.[Na+] [Treprostinil sodium]
[4]
  plasma half life: more than 4 hours
